Reference: US20170120592A1, “INK JET RECORDING METHOD AND INK JET RECORDING APPARATUS” (CANON KABUSHIKI KAISHA, priority 2015, published 2017)

Test: Water-solubility of dye
Format: physicochemical
Conditions: maximum mass of the dye in a sodium salt form that can be dissolved in 100 g of pure water at 20° C.

Row | Molecule | water-solubility of the dye
1 | C.I. Direct Red 289 | (14 g)
2 | CCN(Cc1cccc(S(=O)(=O)[O-])c1)c1ccc(C(=C2C=CC(=[N+](CC)Cc3cccc(S(=O)(=O)[O-])c3)C=C2)c2ccccc2S(=O)(=O)[O-])cc1.[Na+].[Na+] [C.I. Acid Blue 9] | Blue 9 (40 g)
3 | C.I. Direct Blue 199 | (30 g)
4 | C.I. Direct Red 249 | (21 g)
5 | C.I. Direct Yellow 86 | (10 g)
